Laboratory results as given in paper PMC10831071, “Reaction hijacking inhibition of Plasmodium falciparum asparagine tRNA synthetase” (Nature Communications, 2024).
Several values for one entry are separate records, joined by “and”; a condition that tells them apart may be missing. Identical values can stand only once. Like-named read-outs stand apart in the source and are kept apart here.

Experiments:
Assay in all cases: microbe, parasite or virus in culture
Assay type in all cases: cell-based, Plasmodium falciparum
[1] = system: PfCA cKD P. falciparum line; conditions: for Growth: PfCA K/D, no aTc
Source text: (§1) Conditional knockdown (cKD) P. falciparum lines were generated for the cytosolic AsnRS (PF3D7_0211800), cytosolic AlaRS (PF3D7_1367700), cytosolic GlyRS (GlyRS; PF3D7_1420400), PfNT4 (PF3D7_0103200), P. falciparum glutamate dehydrogenase 3 (GDH3; PF3D7_0802000), and P. falciparum carbonic anhydrase (CA, PF3D7_1140000) by fusing the coding sequences and non-coding RNA aptamer sequences in the 3’-UTR, permitting translation regulation using the TetR-DOZI system[59],[60]. Gene editing was achieved by CRISPR/SpCas9 using the linear pSN054 vector that contains cloning sites for the left homology region (LHR) and the right homology region (RHR) as well a target-specific guide RNA under control of the T7 promoter. Cloning into the pSN054 donor vector was carried out following described procedures[59],[60]. The vector includes V5-2xHA epitope tags, a 10x tandem array of TetR aptamers upstream of an Hsp86 3’UTR, and a multicistronic cassette for expression of TetR-DOZI (translation regulation), blasticidin S-deaminase (selection marker) and a Renilla luciferase (RLuc) reporter. All primer and synthetic fragment sequences that were generated using the BioXP™ system and IDT gBlocks™ are included in Supplementary Table 9. The final constructs were sequence-verified and further confirmed by restriction digests.
(§2) Transfection into Cas9- and T7 RNA polymerase-expressing NF54 parasites was carried out by pre-loading red blood cells (RBCs) with the donor vector[61]. […] Cultures were monitored by Giemsa smears and RLuc measurements.
(§3) DMSO- and dihydroartemisinin-treatment (0.5 µM) served as reference controls.

[2] = system: PfGDH3 cKD P. falciparum line; conditions: for Growth: PfGDH K/D
Source text: as §1, §2, §3

[3] = system: PfGlyRS cKD P. falciparum line; conditions: for Growth: PfGlyRS K/D; for IC50: PfGlyRS line, individual repeats
Source text: as §1, §2, §3

[4] = system: PfNT4 cKD P. falciparum line; conditions: for growth after 72 h exposure, normalised to no drug: PfNT4 K/D, replicates; for IC50: PfNT4 line, individual repeats
Source text: as §1, §2, §3

[5] = Plasmodium falciparum, 1 nM, […] aTc or no aTc
[6] = Plasmodium falciparum, 500 nM aTc

Compound: Nc1ncnc2cc(-c3cccc(S(N)(=O)=O)c3)sc12 [OSM-S-106]
- Growth ([1]; 200 nM OSM-S-106): 6.983 and 9.353 and 10.7306
- Growth ([1]; 400 nM OSM-S-106): 0.8215 and 0.8297 and 1.231
- IC50 ([1]; PfCA line, 500 nM aTc, individual repeats): 31.3 nM and 37.6 nM
- IC50 ([1]; Plasmodium falciparum, PfCA line, 1 nM, […] aTc or no aTc, individual repeats): 23 nM
- IC50 ([1]; Plasmodium falciparum, PfCA line, 500 nM aTc, individual repeats): 29.2 nM
- IC50 ([1]; Plasmodium falciparum, read-out: Mean IC50 with 500 nM aTc, PfCA line, 500 nM aTc): 33 nM
- IC50 ([1]; Plasmodium falciparum, read-out: Mean IC50 with low (1 or […])/ no aTc, PfCA knockdown, no aTc): 26 nM
- Growth ([2]; 3.125 nM OSM-S-106, 500 nM aTc): 94.0541 and 124.457 and 123.311 and 110.909
- Growth ([2]; 3.125 nM OSM-S-106, no aTc): 87.3995 and 105.933 and 109.078 and 106.271
- Growth ([2]; 6.25 nM OSM-S-106, 500 nM aTc): 100.123 and 114.751 and 110.911 and 107.384
- Growth ([2]; 6.25 nM OSM-S-106, no aTc): 83.7383 and 126.64 and 124.278 and 107.945
- Growth ([2]; 12.5 nM OSM-S-106, 500 nM aTc): 87.2036 and 124.904 and 116.677 and 110.631
- Growth ([2]; 12.5 nM OSM-S-106, no aTc): 66.2785 and 97.9464 and 116.025 and 105.41
- Growth ([2]; 200 nM OSM-S-106, 500 nM aTc): 11.4175 and 15.1341 and 15.4371 and 10.7452
- Growth ([2]; 200 nM OSM-S-106, no aTc): 9.827 and 15.4022 and 15.1307 and 8.291
- IC50 ([2]; PfGDH3 line, 500 nM aTc, individual repeats): 22.8 nM and 69.5 nM and 36.5 nM and 30.2 nM
- IC50 ([2]; Plasmodium falciparum, read-out: Mean IC50 with 500 nM aTc, PfGDH3 line, 500 nM aTc): 40 nM
- IC50 ([2]; Plasmodium falciparum, read-out: Mean IC50 with low (1 or […])/ no aTc, PfGDH3 knockdown, no aTc): 46 nM
- Growth ([3]; 3.125 nM OSM-S-106, 500 nM aTc): 112.465 and 111.772 and 85.4538
- Growth ([3]; 6.25 nM OSM-S-106, 500 nM aTc): 122.27 and 121.35 and 91.2762
- Growth ([3]; 12.5 nM OSM-S-106, 500 nM aTc): 106.05 and 112.162 and 76.632
- Growth ([3]; 100 nM OSM-S-106, 500 nM aTc): 9.878 and 6.142 and 8.685
- Growth ([3]; 200 nM OSM-S-106, 500 nM aTc): 7.891 and 8.53 and 4.96
- IC50 ([3]; 1 nM, […] aTc or no aTc): 40.7 nM
- IC50 ([3]; 500 nM aTc): 37.2 nM
- IC50 [3, 5]: 39.5 nM
- IC50 [3, 6]: 39.3 nM
- growth after 72 h exposure, normalised to no drug ([4]; 500 nM aTc, 0.488281 nM): 115.319 and 105.291 and 111.528
- growth after 72 h exposure, normalised to no drug ([4]; 500 nM aTc, 0.976562 nM): 113.41 and 102.567 and 108.441
- growth after 72 h exposure, normalised to no drug ([4]; 500 nM aTc, 1.95312 nM): 108.529 and 100.357 and 100.986
- growth after 72 h exposure, normalised to no drug ([4]; 500 nM aTc, 3.90625 nM): 110.366 and 98.6162 and 100.564
- growth after 72 h exposure, normalised to no drug ([4]; 500 nM aTc, 7.8125 nM): 101.389 and 100.305 and 97.246
- growth after 72 h exposure, normalised to no drug ([4]; 500 nM aTc, 31.25 nM): 11.2119 and 13.2391 and 14.7628
- growth after 72 h exposure, normalised to no drug ([4]; 500 nM aTc, 62.5 nM): 1.785 and 2.763 and 1.994
- growth after 72 h exposure, normalised to no drug ([4]; 500 nM aTc, 125 nM): 0.2373 and 0.4204 and 0.2459
- growth after 72 h exposure, normalised to no drug ([4]; 500 nM aTc, 250 nM): 0.2337 and 0.2689 and 0.2037
- growth after 72 h exposure, normalised to no drug ([4]; no aTc, 0.488281 nM): 115.9 and 108.506 and 115.265
- growth after 72 h exposure, normalised to no drug ([4]; no aTc, 0.976562 nM): 107.637 and 104.459 and 111.884
- growth after 72 h exposure, normalised to no drug ([4]; no aTc, 1.95312 nM): 103.621 and 102.992 and 106.407
- growth after 72 h exposure, normalised to no drug ([4]; no aTc, 3.90625 nM): 93.8123 and 99.6909 and 104.029
- growth after 72 h exposure, normalised to no drug ([4]; no aTc, 7.8125 nM): 30.4373 and 37.6726 and 51.4607
- growth after 72 h exposure, normalised to no drug ([4]; no aTc, 31.25 nM): 0.5987 and 0.9711 and 0.5614
- growth after 72 h exposure, normalised to no drug ([4]; no aTc, 62.5 nM): 0.1353 and 0.2821 and 0.05072
- growth after 72 h exposure, normalised to no drug ([4]; no aTc, 125 nM): 0.1322 and 0.3476 and 0.0472
- growth after 72 h exposure, normalised to no drug ([4]; no aTc, 250 nM): 0.1415 and 0.3214 and 0.1916
- IC50 ([4]; 500 nM aTc): 20.5 nM and 21.4 nM
- IC50 [4, 5]: 6.09 nM
- IC50 [4, 6]: 19.9 nM
